Data: EPA's CvTdb concentration-time database

Columns and labels:
[1] = system: Rat; assay: concentration in brain after dosing; details: 1.5 h; dosed: 2-Methyltetrahydrofuran; 40 mg/kg; iv; Male; Harlan Sprague Dawley
[2] = system: Rat; assay: concentration in plasma after dosing; details: 1.5 h; dosed: 2-Methyltetrahydrofuran; 40 mg/kg; iv; Male; Harlan Sprague Dawley
[3] = system: Rat; assay: concentration in kidney after dosing; details: 12 h; dosed: Fluorotelomer alcohol 8+2; 80 mg/kg; oral; Female; Harlan Sprague Dawley
[4] = system: Rat; assay: concentration in liver after dosing; details: 0.5 h; dosed: Fluorotelomer alcohol 8+2; 80 mg/kg; oral; Female; Harlan Sprague Dawley
[5] = system: Rat; assay: concentration in brain after dosing; details: 0.5 h; dosed: Fluorotelomer alcohol 8+2; 24 mg/kg; oral; Male; Harlan Sprague Dawley
[6] = system: Rat; assay: concentration in kidney after dosing; details: 6 h; dosed: Fluorotelomer alcohol 8+2; 80 mg/kg; oral; Female; Harlan Sprague Dawley
[7] = system: Rat; assay: concentration in kidney after dosing; details: 12 h; dosed: Fluorotelomer alcohol 8+2; 24 mg/kg; oral; Male; Harlan Sprague Dawley
[8] = system: Rat; assay: concentration in plasma after dosing; details: 15 h; dosed: Gemfibrozil; 50 mg/kg; oral; Male; Sprague-Dawley
[9] = system: Rat; assay: concentration in plasma after dosing; details: 10 min; dosed: Gemfibrozil; 50 mg/kg; oral; Male; Sprague-Dawley
[10] = system: Rat; assay: concentration in plasma after dosing; details: 1 h; dosed: Gemfibrozil; 4.29 mg/kg; oral; Male; Sprague-Dawley
[11] = system: Rat; assay: concentration in plasma after dosing; details: 10 h; dosed: Gemfibrozil; 50 mg/kg; oral; Male; Sprague-Dawley
[12] = system: Rat; assay: concentration in plasma after dosing; details: 1 h; dosed: Perfluorohexanoic Acid; 40 mg/kg; iv; Female; Harlan Sprague-Dawley
[13] = system: Rat; assay: concentration in liver after dosing; details: 3 h; dosed: Perfluorohexanoic Acid; 80 mg/kg; oral; Male; Harlan Sprague Dawley
[14] = system: Rat; assay: concentration in kidney after dosing; details: 12 h; dosed: Perfluorohexanoic Acid; 80 mg/kg; oral; Male; Harlan Sprague Dawley
[15] = system: Rat; assay: concentration in plasma after dosing; details: 1.5 h; dosed: Perfluorohexanoic Acid; 40 mg/kg; iv; Male; F344
[16] = system: Rat; assay: concentration in plasma after dosing; details: dosed: Perfluorohexanoic Acid, 80 mg/kg, oral, Male, Harlan Sprague Dawley
[17] = system: Rat; assay: concentration in liver after dosing; details: 3 h; dosed: Perfluorohexanoic Acid; 80 mg/kg; oral; Female; Harlan Sprague Dawley
[18] = system: Rat; assay: concentration in kidney after dosing; details: 3360 h; dosed: Perfluorooctane Sulfonate; 20 mg/kg; oral; Male; Harlan Sprague Dawley
[19] = system: Rat; assay: concentration in kidney after dosing; details: 24 h; dosed: Perfluorooctane Sulfonate; 2 mg/kg; oral; Female; Harlan Sprague Dawley
[20] = system: Rat; assay: concentration in plasma after dosing; details: dosed: Perfluorooctane Sulfonate, 2 mg/kg, iv, Male, F344
[21] = system: Rat; assay: concentration in liver after dosing; details: 6 h; dosed: Perfluorooctane Sulfonate; 2 mg/kg; oral; Female; Harlan Sprague Dawley
[22] = system: Rat; assay: concentration in kidney after dosing; details: 6 h; dosed: Perfluorooctane Sulfonate; 2 mg/kg; oral; Female; Harlan Sprague Dawley
[23] = system: Rat; assay: concentration in plasma after dosing; details: 3360 h; dosed: Perfluorooctane Sulfonate; 2 mg/kg; oral; Female; Harlan Sprague Dawley
[24] = system: Rat; assay: concentration in brain after dosing; details: 24 h; dosed: Perfluorooctane Sulfonate; 2 mg/kg; oral; Female; Harlan Sprague Dawley
[25] = system: Rat; assay: concentration in brain after dosing; details: 864 h; dosed: Perfluorooctane Sulfonate; 20 mg/kg; oral; Male; Harlan Sprague Dawley
[26] = system: Rat; assay: concentration in liver after dosing; details: 864 h; dosed: Perfluorooctane Sulfonate; 2 mg/kg; oral; Female; Harlan Sprague Dawley
[27] = system: Rat; assay: concentration in plasma after dosing; details: 24 h; dosed: Perfluorooctane Sulfonate; 2 mg/kg; oral; Female; Harlan Sprague Dawley
[28] = system: Rat; assay: concentration in brain after dosing; details: 24 h; dosed: Perfluorooctane Sulfonate; 2 mg/kg; oral; Female; Harlan Sprague Dawley; remark: listed apart in the source
[29] = system: Rat; assay: concentration in liver after dosing; details: 24 h; dosed: Perfluorooctane Sulfonate; 2 mg/kg; oral; Female; Harlan Sprague Dawley
[30] = system: Rat; assay: concentration in liver after dosing; details: 1848 h; dosed: Perfluorooctane Sulfonate; 20 mg/kg; oral; Male; Harlan Sprague Dawley
[31] = system: Rat; assay: concentration in kidney after dosing; details: 6 h; dosed: Perfluorooctane Sulfonate; 20 mg/kg; oral; Female; F344
[32] = system: rat; assay: concentration in blood after dosing; details: dosed: trichloroethylene

## CC1CCCO1 (stereo not given) [2-Methyltetrahydrofuran]
[1]
  concentration in brain: 7300 ng/mL
[2]
  concentration in plasma: 11400 ng/mL

## O=C(O)CCC(F)(F)C(F)(F)C(F)(F)C(F)(F)C(F)(F)C(F)(F)C(F)(F)F [Fluorotelomer acid 7+3]
[3]
  concentration in kidney: 2750 ng/g
[4]
  concentration in liver: 2020 ng/g
[5]
  concentration in brain: 81.2 ng/g
[6]
  concentration in kidney: 3640 ng/g
[7]
  concentration in kidney: 573 ng/g

## Cc1ccc(C)c(OCCCC(C)(C)C(=O)O)c1 [Gemfibrozil]
[8]
  concentration in plasma: 928 ng/mL
[9]
  concentration in plasma: 110000 ng/mL
[10]
  concentration in plasma: 142 ng/mL
[11]
  concentration in plasma: 4380 ng/mL

## O=C(O)C(F)(F)C(F)(F)C(F)(F)C(F)(F)C(F)(F)F [Perfluorohexanoic Acid]
[12]
  concentration in plasma: 98.9 ng/mL
[13]
  concentration in liver: 37400 ng/g
[14]
  concentration in kidney: 1180 ng/g
[15]
  concentration in plasma: 8050 ng/mL
[16]; 5 min
  concentration in plasma: 35400 ng/mL
[16]; 9 h
  concentration in plasma: 3240 ng/mL
[17]
  concentration in liver: 14700 ng/g

## O=S(=O)([O-])C(F)(F)C(F)(F)C(F)(F)C(F)(F)C(F)(F)C(F)(F)C(F)(F)C(F)(F)F [Perfluorooctane Sulfonate]
[18]
  concentration in kidney: 1110 ng/g
[19]
  concentration in kidney: 4940 ng/g
[20]; 6 h
  concentration in plasma: 4060 ng/mL
[20]; 528 h
  concentration in plasma: 1840 ng/mL
[20]; 3216 h
  concentration in plasma: 96.4 ng/mL
[21]
  concentration in liver: 24500 ng/g
[22]
  concentration in kidney: 8350 ng/g
[23]
  concentration in plasma: 428 ng/mL
[24]
  concentration in brain: 920 ng/g
[25]
  concentration in brain: 2500 ng/g
[26]
  concentration in liver: 17500 ng/g
[27]
  concentration in plasma: 5650 ng/mL
[28]
  concentration in brain: 757 ng/g
[29]
  concentration in liver: 22900 ng/g
[30]
  concentration in liver: 59600 ng/g
[31]
  concentration in kidney: 152000 ng/g

## ClC=C(Cl)Cl [trichloroethylene]
[32]; 110 s, 50 ppm, inhalation, duration: 2 hr, male, Sprague Dawley
  concentration in blood: 206 ng/mL
[32]; 125 s, 7.6 mg/kg, oral, female, F344
  concentration in blood: 1770 ng/mL
[32]; 143 s, 18 mg/kg, oral, male, Wistar
  concentration in blood: 11100 ng/mL
[32]; 219 s, 50 ppm, inhalation, duration: 2 hr, male, Sprague Dawley
  concentration in blood: 267 ng/mL
[32]; 266 s, 18 mg/kg, oral, male, Wistar
  concentration in blood: 13600 ng/mL
[32]; 296 s, 7.6 mg/kg, oral, female, F344
  concentration in blood: 2100 ng/mL
[32]; 350 s, 50 ppm, inhalation, duration: 2 hr, male, Sprague Dawley
  concentration in blood: 337 ng/mL
[32]; 355 s, 18 mg/kg, oral, male, Wistar
  concentration in blood: 13000 ng/mL
[32]; 0.1294 h, 600.4 ppm, inhalation, duration: 4 hr, female, Fischer-344
  concentration in blood: 21900 ng/mL
[32]; 0.1299 h, 50 ppm, inhalation, duration: 2 hr, male, Sprague Dawley
  concentration in blood: 443 ng/mL
[32]; 0.1447 h, 18 mg/kg, oral, male, Wistar
  concentration in blood: 10200 ng/mL
[32]; 0.1617 h, 50 ppm, inhalation, duration: 2 hr, male, Sprague Dawley
  concentration in blood: 402 ng/mL
[32]; 0.1716 h, 7.6 mg/kg, oral, female, F344
  concentration in blood: 1400 ng/mL
[32]; 0.1747 h, 18 mg/kg, oral, male, Wistar
  concentration in blood: 7730 ng/mL
[32]; 0.2208 h, 18 mg/kg, oral, male, Wistar
  concentration in blood: 5020 ng/mL
[32]; 0.2483 h, 50 ppm, inhalation, duration: 2 hr, male, Sprague Dawley
  concentration in blood: 454 ng/mL
[32]; 0.2739 h, 18 mg/kg, oral, male, Wistar
  concentration in blood: 3760 ng/mL
[32]; 0.3228 h, 18 mg/kg, oral, male, Wistar
  concentration in blood: 2790 ng/mL
[32]; 0.3289 h, 50 ppm, inhalation, duration: 2 hr, male, Sprague Dawley
  concentration in blood: 492 ng/mL
[32]; 0.3309 h, 7.6 mg/kg, oral, female, F344
  concentration in blood: 494 ng/mL
[32]; 0.3794 h, 18 mg/kg, oral, male, Wistar
  concentration in blood: 2110 ng/mL
[32]; 0.4153 h, 50 ppm, inhalation, duration: 2 hr, male, Sprague Dawley
  concentration in blood: 352 ng/mL
[32]; 0.4319 h, 18 mg/kg, oral, male, Wistar
  concentration in blood: 1710 ng/mL
[32]; 0.4974 h, 50 ppm, inhalation, duration: 2 hr, male, Sprague Dawley
  concentration in blood: 493 ng/mL
[32]; 0.5005 h, 7.6 mg/kg, oral, female, F344
  concentration in blood: 296 ng/mL
[32]; 0.5081 h, 600.4 ppm, inhalation, duration: 4 hr, female, Fischer-344
  concentration in blood: 15900 ng/mL
[32]; 0.5204 h, 18 mg/kg, oral, male, Wistar
  concentration in blood: 1350 ng/mL
[32]; 0.7511 h, 50 ppm, inhalation, duration: 2 hr, male, Sprague Dawley
  concentration in blood: 433 ng/mL
[32]; 0.7693 h, 18 mg/kg, oral, male, Wistar
  concentration in blood: 957 ng/mL
[32]; 1.002 h, 50 ppm, inhalation, duration: 2 hr, male, Sprague Dawley
  concentration in blood: 555 ng/mL
[32]; 1.014 h, 18 mg/kg, oral, male, Wistar
  concentration in blood: 768 ng/mL
[32]; 1.016 h, 600.4 ppm, inhalation, duration: 4 hr, female, Fischer-344
  concentration in blood: 9420 ng/mL
[32]; 1.252 h, 50 ppm, inhalation, duration: 2 hr, male, Sprague Dawley
  concentration in blood: 512 ng/mL
[32]; 1.512 h, 18 mg/kg, oral, male, Wistar
  concentration in blood: 503 ng/mL
[32]; 1.531 h, 600.4 ppm, inhalation, duration: 4 hr, female, Fischer-344
  concentration in blood: 5750 ng/mL
[32]; 2.017 h, 18 mg/kg, oral, male, Wistar
  concentration in blood: 333 ng/mL
[32]; 2.018 h, 600.4 ppm, inhalation, duration: 4 hr, female, Fischer-344
  concentration in blood: 4750 ng/mL
[32]; 2.518 h, 18 mg/kg, oral, male, Wistar
  concentration in blood: 321 ng/mL
[32]; 3.02 h, 18 mg/kg, oral, male, Wistar
  concentration in blood: 214 ng/mL
[32]; 3.529 h, 18 mg/kg, oral, male, Wistar
  concentration in blood: 59.6 ng/mL
[32]; 4.027 h, 18 mg/kg, oral, male, Wistar
  concentration in blood: 47.7 ng/mL
